Reference: patent publication US20020071842A1, “Soluble CD1 compositions and uses thereof” (priority 2000, published 2002)

Tests used:
[1] = system: human CD1d-restricted T cell clones; assay: Flow cytometric staining with lipid treated multimerized CD1d-Fc aggregates; format: cell-based; conditions: flow cytometry, human CD1d-Fc/Alexa 488 protein A aggregate, 40:1 lipid to fusion protein, compared with DMSO alone
Experimental: (§1) To facilitate binding to CD1 specific T cells for detection by flow cytometry, a highly multimerized form of the CD1d fusion protein was formed using fluorescently labeled protein A molecules. Protein A molecules spontaneously associate in solution at neutral pH with immunoglobulin Fc regions, forming complexes containing four Fc molecules and two protein A molecules (4+2 complexes, reference 2). The human CD1d-Fc fusion protein was incubated with Alexa 488 dye labeled protein A, and the 4+2 complexes purified by size exclusion chromatography on a Pharmacia Superose 6 column using PBS pH 7.2 as a running buffer. The purified 4+2 aggregates were concentrated to 100 μg/ml with ovalbumin as a carrier protein. The CD1d-Fc aggregate was then pre-incubated for 24 to 48 hours at 37° C. with antigenic glycolipids dissolved in DMSO at a 40:1 molar ratio of lipid to fusion protein, or with an equivalent volume of DMSO alone as a negative control. The T cell staining was performed at room temperature or 4° C. for 20 min, at a concentration of 40 μg/ml of the lipid or control treated CD1d-Fc aggregate.
To facilitate binding to CD1 specific T cells for detection by flow cytometry, a highly multimerized form of the CD1d fusion protein is formed using fluorescently labeled protein A molecules. Protein A molecules spontaneously associate in solution at neutral pH with immunoglobulin Fc regions, forming complexes containing four Fc molecules and two protein A molecules (4+2 complexes, Langone, J.J. et al, Molec. and Cell. Biochem, 65(2):159-70 (1985)). The human CD1d-Fc fusion protein was incubated with Alexa 488-dye labeled protein A, and the 4+2 complexes purified by size exclusion chromatography on a Phannacia Superose 6 column using PBS pH 7.2 as a running buffer. The purified 4+2 aggregates are concentrated to 100 μg/ml with ovalbumin as a carrier protein. The CD1d-Fc aggregate is then pre-incubated for 24 to 48 hours at 37° C. with antigenic glycolipids dissolved in DMSO at a 40:1 molar ratio of lipid to fusion protein, or with an equivalent volume of DMSO alone as a negative control. The T cell staining is performed at room temperature or 4° C. for 20 min, at a concentration of 40 μg/ml of the lipid or control treated CD1d-Fc aggregate.
Flow cytometric analysis of a CD1d-restricted T cell clone stained with the multimerized CD1d-Fc fusion protein (abbreviated as “hd(8)-fl”) was performed as follows. Staining with CD1d-Fc treated with lipid antigens dissolved in DMSO was compared with CD1d-Fc treated with DMSO alone as a negative control. The specific lipid antigen used were: aGalCer is α-galactosyl ceramide (KRN7000); aGlcCer is α-glucosyl ceramide; aManCer is α-mannosyl ceramide; bGalCer is β-galactosyl ceramide; Cer is ceramide (acylphytosphingolipid).
Flow cytometric analysis of a series of human T cell clones stained with the multimerized CD1d-Fc fusion protein, treated with α-GalCer or DMSO alone also was performed, including staining of two different CD1d-restricted (“NKT”) T cell clones DN2.B9 and DN1.10B3. Four other T cell clones that are not CD1d-restricted also were stained.

[2] = system: T cell lines and clones isolated from peripheral blood; assay: Functional analysis (cytokine secretion) of T cell lines and clones sorted with α-GalCer treated CD1d-Fc; format: cell-based, human; conditions: in the presence of antigen
Source text: T cell lines and clones stained with the α-GalCer treated CD1d-Fc aggregates were isolated from peripheral blood by flow cytometric cell sorting and limiting dilution cloning, and cultured using standard techniques. […] Cytokine secretion was enhanced in the presence of α-GalCer.

[3] = system: T cell clones that are not CD1d-restricted; assay: Flow cytometric staining with lipid treated multimerized CD1d-Fc aggregates; format: cell-based, human; conditions: flow cytometry; 4 T cell clones that are not CD1d-restricted
Experimental: as §1
To facilitate binding to CD1 specific T cells for detection by flow cytometry, a highly multimerized form of the CD1d fusion protein is formed using fluorescently labeled protein A molecules. […]

## unglycosylated ceramide
[1]
  staining of CD1d-restricted T cell clones by lipid treated CD1d-Fc aggregate: did not stain above background levels

## β-galactosylceramide [β-GalCer]
[1]
  staining of CD1d-restricted T cell clones by lipid treated CD1d-Fc aggregate: did not stain above background levels

## CCCCCCCCCCCCCCCCCCCCCCCCCC(=O)N[C@@H](CO[C@H]1O[C@H](CO)[C@H](O)[C@H](O)[C@H]1O)[C@H](O)[C@H](O)CCCCCCCCCCCCCC [α-GalCer, α-galactosylceramide]
[2]
  cytokine secretion in response to CD1d-transfected antigen presenting cells: enhanced
[3]
  staining of non-CD1d-restricted T cell clones by lipid treated CD1d fusion protein: no staining
[1]; listed as aGalCer
  staining of CD1d-restricted T cell clones by lipid treated CD1d-Fc aggregate: positive staining
